Data published in ChEMBL document CHEMBL5029183 (J Med Chem, 2021).
The source made the active and inactive calls.

Assays:
Mu-type opioid receptor [1] = target: Mu-type opioid receptor (Rattus norvegicus, UniProt P33535); test: Displacement of [3H]DAMGO from MOR in Wistar rat brain membranes measured after 1 hr by scintillation counting method; type: cell membranes, Membrane
[2] = target: Delta-type opioid receptor (Rattus norvegicus, UniProt P33533); test: Displacement of [3H]DPDPE from DOR in Wistar rat brain membranes measured after 3 hrs by scintillation counting method; type: cell membranes, Membrane
Rattus norvegicus [3] = species on record: Rattus norvegicus; test: Selectivity index, ratio of Ki for displacement of [3H]DPDPE from DOR in Wistar rat brain membranes to Ki for displacement of [3H]DAMGO from MOR in Wistar rat brain membranes; type: cell membranes
Rattus norvegicus [4] = species on record: Rattus norvegicus; test: Selectivity index, ratio of Ki for displacement of [3H]-U69593 from KOR in Wistar rat brain membranes to Ki for displacement of [3H]DAMGO from MOR in Wistar rat brain membranes; type: cell membranes
Vas deferens = test: Inhibition of electric-field induced mouse vas deferens contraction; type: functional, tissue-based
Mu-type opioid receptor [5] = target: T1, Mu-type opioid receptor (Homo sapiens, UniProt P35372); test: Agonist activity at mu-opioid receptor (unknown origin) expressed in HEK293 cells assessed as inhibition of forskolin-induced cAMP accumulation incubated for 15 mins by ELISA; type: functional, cell-based
Mu-type opioid receptor [6] = target: T1, Mu-type opioid receptor; test: Agonist activity at mu-opioid receptor (unknown origin) expressed in HEK293 cells assessed as inhibition of forskolin-induced cAMP accumulation incubated for 15 mins by ELISA relative to control; type: functional, cell-based; conditions: filed as agonist
[7] = target: Delta-type opioid receptor (Homo sapiens) (UniProt P41143); test: Agonist activity at delta-opioid receptor (unknown origin) expressed in HEK293 cells assessed as inhibition of forskolin-induced cAMP accumulation incubated for 15 mins by ELISA; type: functional, cell-based
[8] = Metabolic stability in Kunming mouse brain assessed as half life measured upto 480 mins by RP-HPLC analysis; type: ADME, tissue-based
[9] = Metabolic stability in Kunming mouse serum assessed as half life measured upto 480 mins by RP-HPLC analysis; type: ADME, cell-free
Mus musculus [10] = test: Antinociceptive activity in icv dosed Kunming mouse model assessed as increase in paw withdrawal latency by radiant heat paw withdrawal assay; type: functional; conditions: dose 0.67-20 nmol
Mus musculus [11] = test: Antinociceptive activity in Kunming mouse model assessed as increase in paw withdrawal latency at 0.67 to 20 nmol, icv measured after 10 mins by radiant heat paw withdrawal assay; type: functional, organism-based; conditions: dose 0.67-20 nmol
Mus musculus [12] = test: Antinociceptive activity in Kunming mouse model assessed as increase in paw withdrawal latency at 0.67 to 20 nmol, icv measured upto 50 mins by radiant heat paw withdrawal assay; type: functional, organism-based; conditions: dose 0.67-20 nmol, time min <=50
Mus musculus [13] = test: Antinociceptive activity in Kunming mouse model assessed as increase in paw withdrawal latency at 20 nmol, icv pretreated for 10 mins with naloxone followed by compound addition and measured upto 10 mins by radiant heat paw withdrawal assay; type: functional, organism-based; conditions: time min <=10
Mus musculus [14] = test: Antinociceptive activity in Kunming mouse model assessed as increase in paw withdrawal latency at 20 nmol, icv pretreated for 4 hrs with beta-FNA followed by compound addition and measured upto 10 mins by radiant heat paw withdrawal assay; type: functional, organism-based; conditions: time min <=10
Mus musculus [15] = test: Antinociceptive activity in Kunming mouse model assessed as increase in paw withdrawal latency at 20 nmol, icv pretreated for 20 mins with naloxonazine followed by compound addition and measured upto 10 mins by radiant heat paw withdrawal assay; type: functional, organism-based; conditions: time min <=10
Mus musculus [16] = test: Antinociceptive activity in Kunming mouse model assessed as increase in paw withdrawal latency at 20 nmol, icv pretreated for 20 mins with NTI followed by compound addition and measured upto 10 mins by radiant heat paw withdrawal assay; type: functional, organism-based; conditions: time min <=10
Mus musculus [17] = test: Antinociceptive activity in Kunming mouse model assessed as increase in paw withdrawal latency at 20 nmol, icv pretreated for 30 mins with nor-BNI followed by compound addition and measured upto 10 mins by radiant heat paw withdrawal assay; type: functional, organism-based; conditions: time min <=10
Mus musculus [18] = test: Antinociceptive activity in Kunming mouse model assessed as maximum possible effect at 10 micromol/kg, sc by radiant heat paw withdrawal assay; type: functional; conditions: dose 10 µmol/kg
Mus musculus [19] = test: Antinociceptive activity in Kunming mouse model assessed as increase in paw withdrawal latency at 10 micromol/kg, sc pretreated with icv dosed naloxone for 5 mins followed by compound addition by radiant heat paw withdrawal assay; type: functional, organism-based; conditions: dose 10.0 µmol/kg
Mus musculus [20] = test: Antinociceptive activity in Kunming mouse model assessed as increase in paw withdrawal latency at 10 micromol/kg, sc pretreated with icv dosed naloxone methiodide for 5 mins followed by compound addition by radiant heat paw withdrawal assay; type: functional, organism-based; conditions: dose 10.0 µmol/kg
Mus musculus [21] = test: Antinociceptive activity in Kunming mouse model assessed as increase in paw withdrawal latency at 10 micromol/kg, sc pretreated with sc dosed naloxone for 5 mins followed by compound addition by radiant heat paw withdrawal assay; type: functional, organism-based; conditions: dose 10.0 µmol/kg
Mus musculus [22] = test: Antinociceptive activity in Kunming mouse model assessed as increase in paw withdrawal latency at 10 micromol/kg, sc pretreated with sc dosed naloxone methiodide for 5 mins followed by compound addition by radiant heat paw withdrawal assay; type: functional, organism-based; conditions: dose 10.0 µmol/kg
Mus musculus [23] = test: Antiallodynic activity in Kunming mouse model of spared nerve injury-induced neuropathic pain assessed as increase in paw withdrawal threshold at 0.67 to 6.7 nmol, icv by von Frey test; type: functional, organism-based; conditions: dose 0.67-6.7 nmol, time min <=50, TDE = time-dependent effect
Mus musculus [24] = test: Antiallodynic activity in icv dosed Kunming mouse model of spared nerve injury-induced neuropathic pain assessed as increase in ipsilateral withdrawal threshold by von Frey test; type: functional, organism-based; conditions: dose 0.67-6.7 nmol
Mus musculus [25] = test: Antiallodynic activity in Kunming mouse model of spared nerve injury-induced neuropathic pain assessed as increase in paw withdrawal threshold at 0.67 to 6.7 nmol, icv after 50 mins by von Frey test; type: functional, organism-based; conditions: dose 0.67-6.7 nmol
Mus musculus [26] = test: Antiallodynic activity in Kunming mouse model of spared nerve injury-induced neuropathic pain assessed as increase in paw withdrawal threshold at 10 micromol/kg, sc measured at 10 to 50 mins by von Frey test; type: functional, organism-based; conditions: dose 10.0 µmol/kg, time 10-50 min
Mus musculus [27] = test: Antiallodynic activity in Kunming mouse model of CFA-induced inflammatory pain assessed as increase in ipsilateral withdrawal threshold at 0.67 to 6.7 nmol, icv by von Frey test; type: functional, organism-based; conditions: dose 0.67-6.7 nmol, time 10-50 min, TDE = time-dependent effect
Mus musculus [28] = test: Antiallodynic activity in Kunming mouse model of CFA-induced inflammatory pain assessed as increase in ipsilateral withdrawal threshold at 0.67 to 6.7 nmol, icv measured at 10 to 50 mins by von Frey test; type: functional, organism-based; conditions: dose 0.67-6.7 nmol, time 10-50 min
Mus musculus [29] = test: Antiallodynic activity in Kunming mouse model of CFA-induced inflammatory pain assessed as increase in ipsilateral withdrawal threshold at 10 micromol/kg, sc measured at 10 to 50 mins by von Frey test; type: functional, organism-based; conditions: dose 10.0 µmol/kg, time 10-50 min
Mus musculus [30] = species on record: Mus musculus; test: Tolerance ratio of ED50 for Kunming mouse pretreated with 3 times ED50 of compound for 2 hrs followed by challenge with second dose of compound to ED50 for Kunming mouse pretreated with saline for 2 hrs followed by compound addition; type: functional
Mus musculus [31] = test: Antinociceptive tolerance in Kunming mouse pretreated with compound for 3 hrs followed by challenge with second dose of compound at 20 nmol, icv and measured after 3 hrs by radiant heat paw withdrawal test; type: functional, organism-based; conditions: time 6.0 hrs
Mus musculus [32] = test: Chronic antinociceptive tolerance in Kunming mouse pretreated with compound followed by repeated compound addition at 10 micromol/kg, sc once daily for 7 days and measured after 10 mins by radiant heat paw withdrawal test; type: functional, organism-based; conditions: dose 10.0 µmol/kg, time 7.0 day
[33] = Toxicity in Kunming mouse assessed as effect on motor coordination at 10 micromol/kg, sc by rotarod test; type: organism-based; conditions: in vivo, dose 10 µmol/kg

T1 sequence (P35372 whole entry): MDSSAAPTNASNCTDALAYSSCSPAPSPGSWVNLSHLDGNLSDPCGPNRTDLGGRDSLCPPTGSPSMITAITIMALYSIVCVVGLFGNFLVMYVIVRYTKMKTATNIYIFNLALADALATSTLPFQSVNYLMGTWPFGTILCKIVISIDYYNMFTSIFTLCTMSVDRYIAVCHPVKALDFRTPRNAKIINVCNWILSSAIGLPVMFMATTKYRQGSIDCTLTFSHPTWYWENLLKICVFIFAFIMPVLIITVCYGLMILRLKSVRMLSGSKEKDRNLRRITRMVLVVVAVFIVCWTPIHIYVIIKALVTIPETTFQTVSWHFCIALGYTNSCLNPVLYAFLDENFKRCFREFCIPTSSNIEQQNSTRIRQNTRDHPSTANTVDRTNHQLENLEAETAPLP
Chain of Delta-type opioid receptor (P33533 whole entry): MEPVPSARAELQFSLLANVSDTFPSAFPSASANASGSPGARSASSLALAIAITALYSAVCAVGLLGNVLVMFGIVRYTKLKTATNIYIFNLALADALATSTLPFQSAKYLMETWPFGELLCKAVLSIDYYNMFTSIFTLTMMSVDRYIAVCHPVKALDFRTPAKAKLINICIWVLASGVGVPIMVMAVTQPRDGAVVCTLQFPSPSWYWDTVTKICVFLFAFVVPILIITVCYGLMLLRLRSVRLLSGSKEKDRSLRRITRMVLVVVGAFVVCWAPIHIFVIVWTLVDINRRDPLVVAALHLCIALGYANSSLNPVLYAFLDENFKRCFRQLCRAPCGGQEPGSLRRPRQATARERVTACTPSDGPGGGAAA
Chain of Delta-type opioid receptor (Homo sapiens) (P41143 whole entry): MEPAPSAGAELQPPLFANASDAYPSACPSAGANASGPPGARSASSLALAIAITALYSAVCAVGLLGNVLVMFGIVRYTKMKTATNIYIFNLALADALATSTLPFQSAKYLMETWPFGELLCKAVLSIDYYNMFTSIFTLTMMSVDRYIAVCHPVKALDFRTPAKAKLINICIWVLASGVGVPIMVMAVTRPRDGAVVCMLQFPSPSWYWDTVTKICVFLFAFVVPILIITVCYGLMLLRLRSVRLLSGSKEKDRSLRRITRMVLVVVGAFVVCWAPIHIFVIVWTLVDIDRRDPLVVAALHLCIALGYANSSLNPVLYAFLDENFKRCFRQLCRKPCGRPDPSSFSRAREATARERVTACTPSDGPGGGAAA
Chain of Mu-type opioid receptor (Rattus norvegicus, UniProt P33535) (P33535 whole entry): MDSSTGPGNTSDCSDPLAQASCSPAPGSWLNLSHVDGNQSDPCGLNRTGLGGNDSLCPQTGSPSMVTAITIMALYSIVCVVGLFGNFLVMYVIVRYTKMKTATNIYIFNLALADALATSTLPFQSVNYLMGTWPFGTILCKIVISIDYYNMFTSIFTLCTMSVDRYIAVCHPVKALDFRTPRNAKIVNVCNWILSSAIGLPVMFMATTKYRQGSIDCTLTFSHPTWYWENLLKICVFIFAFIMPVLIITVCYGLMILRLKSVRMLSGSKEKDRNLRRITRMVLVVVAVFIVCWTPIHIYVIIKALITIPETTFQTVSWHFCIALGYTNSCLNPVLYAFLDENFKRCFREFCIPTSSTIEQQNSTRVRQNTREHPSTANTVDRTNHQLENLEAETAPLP

Q: With Cc1cc(O)cc(C)c1C[C@H](N)C(=O)N[C@H]1CSSC[C@@H](C(=O)NCC(=O)N[C@H](CCCNC(=N)N)C(=O)N[C@H](CCCNC(=N)N)C(=O)O)NC(=O)[C@H](Cc2ccc(Cl)cc2)NC(=O)[C@H](Cc2ccccc2)NC1=O as the compound, how does the Ki (Mu-type opioid receptor [1]) read?
A: Its Ki is 6.06 nM.

Q: And the Ki [2]?
A: The Ki was 4270 nM.

Q: What about the Ratio Ki (Rattus norvegicus [3]) of the same compound?
A: The Ratio Ki was 705.

Q: What about the Ratio Ki (Rattus norvegicus [4]) of the same compound?
A: The Ratio Ki was 710.

Q: What about the IC50 (Vas deferens) of the same compound?
A: The IC50 was 49.3 nM.

Q: And the EC50 (Mu-type opioid receptor [5])?
A: Its EC50 is 14.3 nM.

Q: What about the Emax (Mu-type opioid receptor [6]) of the same compound?
A: The Emax was 83.8%.

Q: What about the Activity [7] of the same compound?
A: The Activity was “inactive”.

Q: What about the half-life [8] of the same compound?
A: Its half-life is 7.13 h.

Q: What about the half-life [9] of the same compound?
A: Its half-life is 5.33 h.

Q: And the Activity (Mus musculus [10])?
A: The Activity was “Dose-Dependent Effect”.

Q: And the ED50 (Mus musculus [10])?
A: The ED50 was 2.3 nmol.

Q: What about the Activity (Mus musculus [11]) of the same compound?
A: The Activity was “Active”.

Q: What about the Activity (Mus musculus [12]) of the same compound?
A: Its Activity is “Active”.

Q: And the Activity (Mus musculus [13])?
A: The Activity was “inactive”.

Q: And the Activity (Mus musculus [14])?
A: Its Activity is “inactive”.

Q: And the Activity (Mus musculus [15])?
A: The Activity was “inactive”.

Q: And the Activity (Mus musculus [16])?
A: Its Activity is “Active”.

Q: What about the Activity (Mus musculus [17]) of the same compound?
A: The Activity was “inactive”.

Q: What about the MPE (Mus musculus [18]) of the same compound?
A: Its MPE is 75.33%.

Q: And the Activity (Mus musculus [19])?
A: Its Activity is “inactive”.

Q: And the Activity (Mus musculus [20])?
A: Its Activity is “inactive”.

Q: What about the Activity (Mus musculus [21]) of the same compound?
A: Its Activity is “inactive”.

Q: And the Activity (Mus musculus [22])?
A: The Activity was “Active”.

Q: What about the Activity (Mus musculus [23]) of the same compound?
A: Its Activity is “Tde”.

Q: What about the Activity (Mus musculus [24]) of the same compound?
A: The Activity was “Dose-Dependent Effect”.

Q: And the Activity (Mus musculus [25])?
A: Its Activity is “inactive”.

Q: And the Activity (Mus musculus [26])?
A: Its Activity is “Active”.

Q: What about the Activity (Mus musculus [27]) of the same compound?
A: The Activity was “Tde”.

Q: And the Activity (Mus musculus [28])?
A: The Activity was “Active”.

Q: And the Activity (Mus musculus [29])?
A: Its Activity is “Active”.

Q: What about the Ratio (Mus musculus [30]) of the same compound?
A: Its Ratio is 1.5.

Q: What about the Activity (Mus musculus [31]) of the same compound?
A: Its Activity is “inactive”.

Q: And the Activity (Mus musculus [32])?
A: The Activity was “inactive”.

Q: And the Activity [33]?
A: The Activity was “Non-Toxic”.

Q: Which results are given for Cc1cc(O)cc(C)c1C[C@H](N)C(=O)N[C@H]1CSSC[C@@H](C(=O)NCC(=O)N[C@H](CCCNC(=N)N)C(=O)N[C@H](CCCNC(=N)N)C(=O)O)NC(=O)[C@H](Cc2ccc(Cl)cc2)NC(=O)[C@H](Cc2c[nH]c3ccccc23)NC1=O?
A: Ki (Mu-type opioid receptor [1]): 5.78 nM; Ki [2]: 2090 nM; Ratio Ki (Rattus norvegicus [3]): 361; Ratio Ki (Rattus norvegicus [4]): 548; IC50 (Vas deferens): 47.5 nM; EC50 (Mu-type opioid receptor [5]): 13.6 nM; Emax (Mu-type opioid receptor [6]): 87.3%; Activity [7]: inactive; half-life [8]: 7.48 h; half-life [9]: 5.58 h; Activity (Mus musculus [10]): Dose-Dependent Effect; ED50 (Mus musculus [10]): 2.1 nmol; Activity (Mus musculus [11]): Active; Activity (Mus musculus [12]): Active; Activity (Mus musculus [13]): inactive; Activity (Mus musculus [14]): inactive; Activity (Mus musculus [15]): Active; Activity (Mus musculus [16]): Active; Activity (Mus musculus [17]): Active; MPE (Mus musculus [18]): 79.76%; Activity (Mus musculus [19]): inactive; Activity (Mus musculus [20]): inactive; Activity (Mus musculus [21]): inactive; Activity (Mus musculus [22]): Active; Activity (Mus musculus [23]): Tde; Activity (Mus musculus [24]): Dose-Dependent Effect; Activity (Mus musculus [25]): inactive; Activity (Mus musculus [26]): Active; Activity (Mus musculus [27]): Tde; Activity (Mus musculus [28]): Active; Activity (Mus musculus [29]): Active; Ratio (Mus musculus [30]): 1.2; Activity (Mus musculus [31]): inactive; Activity (Mus musculus [32]): inactive; Activity [33]: Non-Toxic
